Values quoted from earlier work as cited in US20040131704A1, “A method of organic and all natural treatment, prevention and relief of diaper dermatitis and other related skin irritations” (priority 2003, published 2004).

Assays:
epithelial formations = details: aqueous solution in strengths of 0.30 percent
[1] = topical application of Lavender oil
[2] = system: 18 strains of gram positive and gram-negative bacteria
[3] = relative activity of triterpenoids

For `NC(=O)NC1NC(=O)NC1=O` (stereo not shown) [Allantoin], the “action in strengthening epithelial formations” value (epithelial formations) is listed as “powerful action”.
In the case of `C=CC(C)(O)CCC=C(C)C` (stereo not shown) [Linalool], the “time of peak in the blood” value [1] is listed as 19 min, the “time to detection in the blood” value [1] is listed as “five” and the “number of strains with antibacterial activity” value [2] is listed as 17 out of 18 strains.
In the case of `CC1(C)CC[C@]2(C)CC[C@]3(C)C(=CC[C@@H]4[C@@]5(C)CC[C@H](O)C(C)(C)[C@@H]5CC[C@]43C)[C@@H]2C1` [beta-amyrin], the anti-inflammatory activity [3] is listed as “less active than the free diol”.
In the case of `CC12CCC(CC1)C(C)(C)O2` [cineole], the “number of strains with antibacterial activity” value [2] is given as 16 out of 18 strains.
For `CC1=CC[C@@]2(C)[C@H]([C@@H]1C)[C@H]1CC[C@@H]3[C@@]4(C)CC[C@H](O)C(C)(C)[C@@H]4CC[C@@]3(C)[C@]1(C)C[C@@H]2O` [faradiol], the anti-inflammatory activity [3] is given as “most active of the tested compounds and equals indomethacian in activity”.
For `C=CC(C)(CCC=C(C)C)OC(C)=O` (stereo not shown) [linalyl acetate], the “time of peak in the blood” value [1] is listed as 19 min and the “time to detection in the blood” value [1] is listed as “five”.
For `C=C(C)[C@@H]1CC[C@]2(C)CC[C@]3(C)[C@H](CC[C@@H]4[C@@]5(C)CC[C@H](O)C(C)(C)[C@@H]5CC[C@]43C)[C@@H]12` [lupeol], the anti-inflammatory activity [3] is given as “less active than the free diol”.
In the case of `CC1=CCC2(C)CCC3(C)C(CCC4C5(C)CCC(O)C(C)(C)C5CCC43C)C2C1C` (stereo not shown) [psi-taraxzsterol], the anti-inflammatory activity [3] is given as “less active than the free diol”.
For `C=C1CC[C@]2(C)CC[C@]3(C)[C@H](CC[C@@H]4[C@@]5(C)CC[C@H](O)C(C)(C)[C@@H]5CC[C@]43C)[C@H]2[C@@H]1C` [taraxasterol], the anti-inflammatory activity [3] is listed as “less active than the free diol”.
In the case of faradoil monoester, the anti-inflammatory activity [3] is listed as “most relevant principle for the activity of the drug”.
